The results in this text go back to ChEMBL document CHEMBL1201862, “PubChem BioAssay data set” (2004).

In general, IC50 refers to the point on the concentration scale where inhibition reaches its midpoint. One may read the EC50 as the concentration needed to bring the measured effect to its halfway point. For orientation: AC50 means the midpoint of the concentration-response curve, whichever way the signal moves.

Molecules are shown by their SMILES. Active and inactive are the calls of the source. Where only a bound is given, the exact number is not on record here.

Assay [1] deals with Disintegrin and metalloproteinase domain-containing protein 17 (Homo sapiens, UniProt P78536). Briefly: exosite inhibitors of ADAM17, dose response, biochemical (AID 743260).
Sequence of Disintegrin and metalloproteinase domain-containing protein 17 (P78536 whole entry, the tested form may be a part): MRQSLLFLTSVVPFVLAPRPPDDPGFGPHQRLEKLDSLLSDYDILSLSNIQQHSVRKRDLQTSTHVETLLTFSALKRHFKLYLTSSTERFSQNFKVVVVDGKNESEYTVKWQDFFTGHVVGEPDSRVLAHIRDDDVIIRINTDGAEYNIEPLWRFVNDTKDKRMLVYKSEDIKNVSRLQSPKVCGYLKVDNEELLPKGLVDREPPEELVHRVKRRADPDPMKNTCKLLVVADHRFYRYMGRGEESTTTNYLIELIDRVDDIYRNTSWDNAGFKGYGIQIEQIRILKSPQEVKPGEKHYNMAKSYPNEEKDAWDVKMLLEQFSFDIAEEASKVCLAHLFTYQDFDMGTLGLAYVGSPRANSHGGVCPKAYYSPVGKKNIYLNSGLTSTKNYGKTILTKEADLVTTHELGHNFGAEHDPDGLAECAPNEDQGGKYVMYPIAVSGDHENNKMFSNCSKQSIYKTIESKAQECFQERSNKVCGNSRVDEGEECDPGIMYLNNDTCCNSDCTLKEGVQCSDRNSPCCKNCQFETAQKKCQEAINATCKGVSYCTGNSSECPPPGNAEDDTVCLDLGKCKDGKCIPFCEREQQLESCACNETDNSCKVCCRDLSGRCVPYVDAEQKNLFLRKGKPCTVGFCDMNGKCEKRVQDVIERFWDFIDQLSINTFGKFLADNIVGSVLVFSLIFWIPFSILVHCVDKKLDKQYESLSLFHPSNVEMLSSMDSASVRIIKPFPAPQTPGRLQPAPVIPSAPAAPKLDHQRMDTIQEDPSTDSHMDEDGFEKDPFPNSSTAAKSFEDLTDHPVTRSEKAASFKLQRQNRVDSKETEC
The nature of assay [2]: ADAM10 protease inhibitors, dose response, selectivity assay for ADAM17 exosite inhibitor project, biochemical, FRET peptide substrate, recombinant human ADAM10 (AID 743259).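 Further: ADAM10 enzyme cleaving a FRET peptide substrate.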
Assay [3] deals with 5-hydroxytryptamine receptor 2A (Mus musculus, UniProt P35363). Type of assay: functional, cell-based.
The target of assay [4] is Mu-type opioid receptor (Homo sapiens, UniProt P35372). Type of assay: functional, cell-based.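 Further: U2OS cells with beta-arrestin recruitment to OPRM1 by beta-gal complementation.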
Assay [5] in a line: cells.
Assay [6] addresses 1-phosphatidylinositol 4,5-bisphosphate phosphodiesterase gamma-1 (Homo sapiens, UniProt P19174). Briefly: Counterscreen for inhibitors of phospholipase C isozymes (PLC-B3): Fluorescence-based biochemical high throughput dose response assay to identify inhibitors of phospholipase C isozymes (PLC-gamma1). (In general: Counterscreens check selectivity or assay interference.)
Assay [7] addresses 1-phosphatidylinositol 4,5-bisphosphate phosphodiesterase beta-3 (Homo sapiens, UniProt Q01970). Briefly: Fluorescence-based biochemical high throughput dose response assay to identify inhibitors of phospholipase C isozymes (PLC-B3).
In assay [8] the target is Induced myeloid leukemia cell differentiation protein Mcl-1 (Homo sapiens, UniProt Q07820). Type of assay: functional.
Sequence of Induced myeloid leukemia cell differentiation protein Mcl-1 (Q07820 whole entry): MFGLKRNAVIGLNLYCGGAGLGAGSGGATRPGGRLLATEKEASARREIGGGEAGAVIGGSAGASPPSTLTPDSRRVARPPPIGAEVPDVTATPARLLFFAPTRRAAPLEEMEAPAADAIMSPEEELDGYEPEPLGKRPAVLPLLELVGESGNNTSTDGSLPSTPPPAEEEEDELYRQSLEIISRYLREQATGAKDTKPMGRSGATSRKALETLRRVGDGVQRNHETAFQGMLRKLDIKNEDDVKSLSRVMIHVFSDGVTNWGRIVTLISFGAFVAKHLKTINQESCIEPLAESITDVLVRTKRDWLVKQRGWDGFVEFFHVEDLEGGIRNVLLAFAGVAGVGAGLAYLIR
Assay [9] concerns the target Albumin (Bos taurus, UniProt P02769). Put plainly: Counterscreen for inhibitors of T-cell receptor (TCR)-CD3 interaction: Fluorescence-based biochemical high throughput dose response assay to identify inhibitors of T-cell receptor (TCR)-CD3 interaction using a TAMRA-labeled BSA probe. Type of assay: functional.
Assay [10] in a line: cytotoxicity in OVCAR8 ovarian cancer cells, dose response, PAX8 project, cell-based, plate reader, dry powder samples (AID 743197). The assay is classed as functional. As to conditions: OVCAR-8.
In assay [11] the target is Paired box protein Pax-8 (Homo sapiens, UniProt Q06710). Briefly: inhibitors of PAX8-driven TPO luciferase reporter, dose response, RMG-I cells, cherry-pick (AID 687027).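 Further: luciferase reporter driven by Pax8 target thyroperoxidase promoter measured by SteadyGlo luminescence.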 Type of assay: functional, cell-based. Background: Reporter assays use an easily measured gene product as a stand-in for the process of interest.
Assay [12] is described as follows: NIH:OVCAR-3 ovarian cancer cell cytotoxicity, dose response, PAX8 inhibitor project, plate reader, dry powder samples (AID 743044). Type of assay: functional, cell-based.
The nature of assay [13]: IOSE-T80 ovarian epithelial cell cytotoxicity, dose response, cytotoxicity control for PAX8 inhibitor project, plate reader, dry powder samples (AID 743045). The assay is classed as functional, cell-based.
Assay [14] in a line: IGROV1 ovarian cancer cell cytotoxicity, dose response, PAX8 inhibitor project, plate reader, dry powder samples (AID 743043). Type of assay: functional, cell-based. As to conditions: IGROV-1.
Assay [15] in a line: non-specific cell cytotoxicity, dose response, cytotoxicity control for PAX8 inhibitor project, plate reader, dry powder samples (AID 743021). Type of assay: functional, cell-based.
The nature of assay [16]: A2780 ovarian cancer cell cytotoxicity, dose response, cytotoxicity control, plate reader, dry powder samples (AID 743046). Type of assay: functional, cell-based.
Assay [17] has as its target Metabotropic glutamate receptor 5 (Rattus norvegicus, UniProt P31424). Briefly: Identification of a glycine sulfonamide based non-MPEP site positive allosteric potentiator (PAM) of mGlu5 (calcium_assay). The assay is classed as functional.
A short description of assay [18]: cytotoxicity in COV434 cells, dose response, cytotoxicity control for PAX8 inhibitor project, cell-based, plate reader, dry powder, SA7 (AID 743145). The assay is classed as functional.
Assay [19] is described as follows: cytotoxicity in OV-90 ovarian cancer cells, dose response, PAX8 inhibitor project, cell-based, plate reader, dry powder, SA8 (AID 743149). Type of assay: functional.
The nature of assay [20]: PAX5 activity inhibitors, dose response, selectivity assay for PAX8 inhibitor project, cell-based, plate reader, dry powder samples (AID 743047).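 Further: HEK293 cells carrying a Pax5 driven CD19 promoter luciferase reporter; potency of inhibitors that lower reporter luminescence.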 The assay is classed as functional.
A short description of assay [21]: PAX2 cell-based inhibition, dose response, selectivity assay for PAX8 inhibitor project, plate reader, dry powder samples (AID 743048).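 Further: HEK293 cells carrying a WT1 promoter luciferase reporter driven by expressed Pax2; potency is for inhibition of Pax2 driven reporter signal.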 Type of assay: functional.
A short description of assay [22]: cytotoxicity dependent on PAX8, dose response, cell-based, plate reader, dry powder (AID 743049). Type of assay: functional.
Assay [23] in a line: HepG2 cell cytotoxicity, dose response, cytotoxicity control, plate reader, cherry-pick, antagonist series (AID 743416). Type of assay: functional, cell-based.
Assay [24] can be described thus: nonselective inhibitors of cellular cAMP signaling, dose response, counter-screen for MC4R biased antagonist project, cell-based, TR-FRET cAMP detection (AID 602305).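 Further: U2OS cells stimulated with forskolin near its EC80 as the cAMP inducer; potency is for inhibition of forskolin-stimulated cAMP signaling.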 The assay is classed as functional.
Assay [25] in a line: LGR2 antagonists, dose response, cell-based, HEK293, CRE-luciferase reporter, cherry pick, set 2 (AID 743343).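 Further: transfected cells were stimulated with diluted bursicon conditioned medium after compound addition.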 The assay is classed as functional.
Assay [26] deals with Melanocortin receptor 4 (Homo sapiens, UniProt P32245). Put plainly: MC4R antagonist potency on cAMP, dose response, cell-based, TR-FRET, biased antagonists (AID 602298).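 Further: antagonist potency against agonist-stimulated cAMP production.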 Type of assay: functional. In general terms: Time-resolved FRET reads energy transfer from a long-lived donor to a nearby acceptor.
Assay [27] in a line: A549 cell cytotoxicity, dose response, cytotoxicity control, plate reader, cherry-pick, antagonist series (AID 743412). Type of assay: functional, cell-based.
Assay [28] in a line: HEK293 cell cytotoxicity, dose response, cytotoxicity control, plate reader, cherry-picked samples (AID 743446). Type of assay: functional, cell-based.
Assay [29] is described as follows: MC4R antagonists, dose response, counter-screen for LGR2 antagonist project, cell-based, plate reader, cherry pick (AID 743444).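 Further: transfected HEK 293 cells stimulated with alpha-MSH peptide; potency of inhibitors of the alpha-MSH evoked signal.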 The assay is classed as functional.
The nature of assay [30]: cells. The following applies: HEK293.
The target in assay [31] is Genome polyprotein (dengue virus type 2, UniProt P29990). Briefly: Dengue-2 NS5 methyltransferase inhibitors, primary screen, biochemical, confirmation dose response (AID 588689). The assay is classed as functional.
Assay [32] concerns the target Caspase-6 (Homo sapiens, UniProt P55212). Put plainly: human caspase-6 inhibitors, dose response, biochemical, VEID-R110 fluorescence, cherry-pick (AID 720632).
In assay [33] the target is NAD-dependent protein deacylase sirtuin-5, mitochondrial (Homo sapiens, UniProt Q9NXA8). Put plainly: SIRT5 desuccinylase inhibitors, dose response, biochemical, fluorescence imaging, cherry-pick, set 5 (AID 720591).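 Further: desuccinylation of succinyl peptide AMC substrate read as fluorescence after trypsin release; potency of inhibitors that lower fluorescence and may act on trypsin instead.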
Sequence of NAD-dependent protein deacylase sirtuin-5, mitochondrial (Q9NXA8 whole entry): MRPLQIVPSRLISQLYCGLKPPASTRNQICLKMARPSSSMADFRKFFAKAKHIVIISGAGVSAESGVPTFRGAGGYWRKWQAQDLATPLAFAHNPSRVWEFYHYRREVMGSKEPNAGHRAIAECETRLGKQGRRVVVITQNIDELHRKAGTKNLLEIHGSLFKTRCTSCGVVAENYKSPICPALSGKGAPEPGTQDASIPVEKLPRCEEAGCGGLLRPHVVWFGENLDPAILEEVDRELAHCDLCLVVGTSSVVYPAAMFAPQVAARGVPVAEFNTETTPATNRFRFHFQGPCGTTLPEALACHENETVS

Sequence of Metabotropic glutamate receptor 5 (P31424 whole entry): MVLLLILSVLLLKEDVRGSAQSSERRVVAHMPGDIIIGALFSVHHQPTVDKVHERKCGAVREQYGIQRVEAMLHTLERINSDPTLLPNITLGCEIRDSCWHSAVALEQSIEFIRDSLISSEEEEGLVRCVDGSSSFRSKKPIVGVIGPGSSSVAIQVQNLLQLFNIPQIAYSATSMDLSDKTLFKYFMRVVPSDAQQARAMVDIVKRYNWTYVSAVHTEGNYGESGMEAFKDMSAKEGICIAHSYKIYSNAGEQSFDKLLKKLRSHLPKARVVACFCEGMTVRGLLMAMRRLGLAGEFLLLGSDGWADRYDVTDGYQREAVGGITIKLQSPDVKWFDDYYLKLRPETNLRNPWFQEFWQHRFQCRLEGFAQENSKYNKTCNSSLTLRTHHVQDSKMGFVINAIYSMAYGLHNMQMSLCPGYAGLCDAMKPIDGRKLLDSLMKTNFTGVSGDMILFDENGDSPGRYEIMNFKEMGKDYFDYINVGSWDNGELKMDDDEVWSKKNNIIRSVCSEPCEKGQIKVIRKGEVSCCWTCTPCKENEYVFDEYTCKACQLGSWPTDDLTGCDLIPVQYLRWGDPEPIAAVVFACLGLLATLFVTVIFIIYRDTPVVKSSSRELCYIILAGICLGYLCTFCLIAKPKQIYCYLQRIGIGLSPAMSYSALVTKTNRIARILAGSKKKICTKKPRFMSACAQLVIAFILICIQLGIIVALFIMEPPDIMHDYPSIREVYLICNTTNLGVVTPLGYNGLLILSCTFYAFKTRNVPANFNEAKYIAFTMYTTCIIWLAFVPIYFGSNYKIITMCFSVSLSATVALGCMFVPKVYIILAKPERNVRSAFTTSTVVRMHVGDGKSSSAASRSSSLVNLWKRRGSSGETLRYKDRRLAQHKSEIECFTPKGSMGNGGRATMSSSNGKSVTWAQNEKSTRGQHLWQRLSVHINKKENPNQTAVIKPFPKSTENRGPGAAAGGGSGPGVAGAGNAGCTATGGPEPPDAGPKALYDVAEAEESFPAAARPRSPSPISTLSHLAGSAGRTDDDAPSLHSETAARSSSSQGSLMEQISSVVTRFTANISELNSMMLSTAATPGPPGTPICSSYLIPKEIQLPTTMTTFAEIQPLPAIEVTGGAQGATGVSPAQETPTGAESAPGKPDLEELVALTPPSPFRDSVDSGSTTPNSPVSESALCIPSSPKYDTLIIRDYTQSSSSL
Sequence of Albumin (P02769 whole entry): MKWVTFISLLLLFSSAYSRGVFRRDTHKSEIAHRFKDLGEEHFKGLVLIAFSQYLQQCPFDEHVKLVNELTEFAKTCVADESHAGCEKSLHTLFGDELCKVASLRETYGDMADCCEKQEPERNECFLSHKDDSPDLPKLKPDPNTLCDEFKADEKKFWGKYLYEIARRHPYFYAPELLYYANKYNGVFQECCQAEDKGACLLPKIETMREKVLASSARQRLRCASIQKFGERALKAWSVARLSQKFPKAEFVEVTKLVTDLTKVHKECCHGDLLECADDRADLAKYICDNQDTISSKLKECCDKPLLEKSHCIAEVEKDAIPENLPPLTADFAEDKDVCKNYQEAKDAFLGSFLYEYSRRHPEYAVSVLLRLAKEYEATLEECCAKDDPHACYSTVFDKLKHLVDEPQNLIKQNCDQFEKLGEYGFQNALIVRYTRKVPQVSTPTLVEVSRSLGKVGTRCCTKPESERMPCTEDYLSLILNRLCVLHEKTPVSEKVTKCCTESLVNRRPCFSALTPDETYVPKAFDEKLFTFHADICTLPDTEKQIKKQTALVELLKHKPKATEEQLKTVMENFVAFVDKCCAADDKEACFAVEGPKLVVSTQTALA
Sequence of 1-phosphatidylinositol 4,5-bisphosphate phosphodiesterase beta-3 (Q01970 whole entry): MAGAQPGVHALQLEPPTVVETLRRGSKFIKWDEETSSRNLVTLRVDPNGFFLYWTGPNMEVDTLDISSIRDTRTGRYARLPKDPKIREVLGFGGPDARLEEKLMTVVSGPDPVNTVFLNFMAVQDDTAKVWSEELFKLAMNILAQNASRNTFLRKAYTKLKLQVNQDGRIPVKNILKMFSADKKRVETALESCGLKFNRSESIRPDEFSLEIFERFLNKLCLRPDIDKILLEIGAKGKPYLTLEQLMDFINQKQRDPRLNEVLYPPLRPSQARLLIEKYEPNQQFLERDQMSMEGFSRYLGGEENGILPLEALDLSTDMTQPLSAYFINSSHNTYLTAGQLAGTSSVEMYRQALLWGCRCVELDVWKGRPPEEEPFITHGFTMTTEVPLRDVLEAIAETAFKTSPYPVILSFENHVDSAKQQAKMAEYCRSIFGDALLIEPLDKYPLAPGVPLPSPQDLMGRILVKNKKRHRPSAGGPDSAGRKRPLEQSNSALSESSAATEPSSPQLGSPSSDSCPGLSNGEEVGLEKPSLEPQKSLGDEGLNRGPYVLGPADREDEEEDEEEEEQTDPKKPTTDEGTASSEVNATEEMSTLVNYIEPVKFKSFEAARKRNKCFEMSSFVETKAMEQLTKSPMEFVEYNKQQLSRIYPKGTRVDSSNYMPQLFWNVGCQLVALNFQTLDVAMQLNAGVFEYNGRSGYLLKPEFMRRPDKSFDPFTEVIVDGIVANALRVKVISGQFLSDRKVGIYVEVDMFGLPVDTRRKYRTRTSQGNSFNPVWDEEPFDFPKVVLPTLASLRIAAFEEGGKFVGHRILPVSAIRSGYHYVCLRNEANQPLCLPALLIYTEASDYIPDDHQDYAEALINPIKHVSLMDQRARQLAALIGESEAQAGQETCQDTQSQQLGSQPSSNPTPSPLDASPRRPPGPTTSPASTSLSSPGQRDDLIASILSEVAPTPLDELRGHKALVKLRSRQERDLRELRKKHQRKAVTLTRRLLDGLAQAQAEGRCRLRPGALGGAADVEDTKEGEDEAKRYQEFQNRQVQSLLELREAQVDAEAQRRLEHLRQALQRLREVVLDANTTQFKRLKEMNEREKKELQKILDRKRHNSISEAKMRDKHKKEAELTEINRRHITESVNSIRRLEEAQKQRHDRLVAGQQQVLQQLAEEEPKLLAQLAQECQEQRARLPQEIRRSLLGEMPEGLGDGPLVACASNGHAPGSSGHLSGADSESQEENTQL
Sequence of Caspase-6 (P55212 24-179 limits assumed): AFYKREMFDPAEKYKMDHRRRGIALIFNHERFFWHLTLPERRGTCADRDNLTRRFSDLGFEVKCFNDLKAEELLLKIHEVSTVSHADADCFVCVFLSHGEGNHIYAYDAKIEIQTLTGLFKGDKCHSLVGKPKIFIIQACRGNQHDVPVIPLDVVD
Sequence of Caspase-6 (P55212 194-293 limits assumed): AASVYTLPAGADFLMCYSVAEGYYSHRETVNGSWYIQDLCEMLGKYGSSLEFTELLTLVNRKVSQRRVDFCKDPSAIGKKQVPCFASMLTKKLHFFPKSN

With `O=C1CC(Nc2ccc3ccccc3c2)C(=O)N1Cc1ccccc1` (configuration not stated), the IC50 in assay [1] and in assay [2] was > 69.5 µM (inactive) each time.

Turning to `CN1CCc2c(sc(NC(=O)Cc3ccccc3)c2C#N)C1`, the EC50 in [3] was 48.2 µM (inactive); in [4], 92.5 µM (inactive). In [5], the AC50 is 66.1 µM (active).

Consider `O=C1/C(=C/c2ccco2)SC(=S)N1c1cccnc1`, for which the IC50 in assay [6] is > 122 µM (inactive); in assay [7], > 122 µM (inactive); in [8], 3.16 µM (not active); in assay [9] it was > 94.1 µM (inactive).

`C[C@H](CO)N1C[C@H](C)[C@@H](CN(C)S(=O)(=O)c2ccc(F)cc2)OCCCC[C@H](C)Oc2ccc(NS(=O)(=O)c3ccc(Cl)cc3)cc2C1=O`: the AC50 in assay [10] is 14.9 µM (active); in [11] it was 4.97 µM (active); in assay [12], 11.9 µM (active); in [13] it was 13.1 µM (active); in [14], 35.1 µM (active); in [15] it was 49.2 µM (active). For the same molecule, in [16], the AC50 is 23.3 µM (active).

`CS(=O)(=O)N(CC(=O)Nc1ccc(F)nc1)c1ccccc1Cl`: the concentration giving a half-maximal response (EC50) in [17] was determined as 4.4 µM.

For the molecule `COc1ccccc1NC(=O)Cn1nc(-c2ccc(Cl)cc2)c2ccccc2c1=O`, the IC50 is > 69.5 µM (inactive) in assay [1] and 16.3 µM (inactive) in [2].

Take `COc1ccccc1C#Cc1ccc([C@H]2[C@@H](CO)N(C(=O)C3CCCC3)[C@H]2C#N)cc1`: the half-maximal activity concentration (AC50) is 48.3 µM (active) in assay [12]; > 70 µM (inactive) in assay [18]; > 70 µM (inactive) in assay [19]; 23 µM (active) in assay [20]; 37.4 µM (active) in assay [14]; 27.6 µM (active) in assay [21]. Besides, the concentration at half-maximal activity (AC50) in assay [22] is 40.7 µM (active).

In the case of `COc1ccc(CN2Cc3cnnn3-c3ccccc3C2C#N)cc1` (configuration not stated), the AC50 was > 52 µM (inactive) in [23]; 27.1 µM (active) in assay [25]; 20.6 µM (active) in assay [27]; 12.7 µM (active) in [28]; 25.8 µM (active) in assay [29]. For the same molecule, the results for the IC50 in [24] and in assay [26] were > 64.7 µM (inactive) and 26.3 µM (inactive), respectively.

Regarding `COC(=O)C1=CN(C)C=C(C(=O)OC)C1c1ccccc1Cl`, the AC50 in [30] was > 52 µM (inactive).

For the molecule `O=C(O)c1cccc(N2C(=O)c3cc([N+](=O)[O-])cc4cc([N+](=O)[O-])cc(c34)C2=O)c1`, the IC50 in [31] is 26.7 µM (active). For the same molecule, the AC50 in assay [32] is 8.47 µM (active).

On to `CS(=O)(=O)N1c2ccccc2CCC1C(=O)Nc1ccncc1` (configuration not stated), for which the EC50 in assay [17] was 10 µM (inconclusive).

For `COc1ccc(N(C(C)=O)c2nc3ccccc3[nH]2)cc1`, in assay [33], the AC50 was > 30 µM (inactive).

For `Cc1ccc(-c2nnc(Nc3ccccc3)o2)cc1`, the AC50 in assay [23] is > 52 µM (inactive); in [25] it was 18.6 µM (active); in assay [28], > 52 µM (inactive); in assay [29], 25.6 µM (active).
